Measured values from publication PMC10572602, “Molecular Mechanism of STIL Coiled-Coil Domain Oligomerization” (International Journal of Molecular Sciences, 2023).
Like-named read-outs stand apart in the source and are kept apart here.

Assays:
[1] = assay type: physicochemical; conditions: for Tm: CD 222 nm, Boltzmann fit
Text: (§1) Next, we used circular dichroism (CD) spectroscopy to probe the secondary structures of these WT CCD peptide assemblies. […] The spectra all had minima at 208 and 222 nm indicative of largely α-helical structures. From the high-concentration spectra we estimated ≈47% helix. To compare how the stabilities of these helical assemblies changed with concentration, we followed the changes in MRE222 with temperature over the same concentration range (Figure 2D, Table S1). Sigmoidal curves indicative of cooperative unfolding were apparent at all concentrations, indicating a cooperatively folded, oligomeric species. […] The temperature-dependent CD measurements were performed to determine the oligomerization-dependent thermal stability of the CCD. […] CD spectra of the peptides were recorded using a J-810 spectropolarimeter (Jasco) in a 0.1 cm and 1 cm quartz cuvette for far-UV CD spectroscopy, in a spectral range of 190 nm to 260 nm. The buffer used in the CD measurements was 25 mM sodium phosphate buffer pH = 6.8 with ionic strength of 154 mM (adjected by NaCl). The thermal melting of all STIL CCD peptides were measured as described. The graphs were fitted to Boltzmann equation in order to generate the Tm. Normalization to mean residue ellipticity was performed. The 100% helicity was calculated (with normalization to the length of the peptide and the condition of the measurement) as MRE × 10^−3 of −38 (Deg × cm^2 × dmol^−1 × res^−1).

STIL CCD peptide [2] = experiment: AUC-SE dimer-tetramer model, tetramerization KD; assay type: binding; conditions: any experimental conditions; KDs could not be measured
Experimental: (§2) To quantify the dissociation constants of the possible monomer-dimer and dimer-tetramer transitions, we used fluorescence-based binding measurements. Using micro-scale thermophoresis, fluorescence measurements were taken at increasing concentrations of WT CCD peptide in a fixed background of 5 µM fluorophore-labelled peptide. […] Fitting the fluorescence data to the Hill equation provided a dissociation constant of 8 ± 2 µM and a cooperativity of 1.2 ± 0.3 (Figure 2B, Table S4). We interpret this as being for the monomer-dimer transition, and that the fluorescence measurements are insensitive to the higher-order oligomerization. […] To probe the possible dimer-tetramer transition, we turned to AUC-SE measurements with starting concentrations of 5, 10, and 20 µM of STIL WT CCD peptide (Figures S18 and S19). The equilibrated data were fitted first to a model for a single ideal species, which provided a species 2.9 × monomer mass (Table 1). […] It should be noted that the dimerization constant of the WT peptide was measured in the presence of 5% DMSO and using a fluorophore-labeled peptide, while the tetramerization constant was measured without DMSO and unlabeled peptides. The addition of the label and the presence of the DMSO, which was unavoidable for making the labeled peptide soluble, may have affected the measured dimerization constant. Thus, we avoid directly comparing the values obtained by the two methods.
Analytical ultracentrifugation (AUC) experiments were carried out using a Beckman Optima XL-A or XL-I analytical ultracentrifuge. Measurements were performed at 20 °C unless otherwise stated, using an An-50 or An-60 rotor, in Sodium Phosphate Buffer pH 6.8 (25 mM Na2PO4 with addition of 137 mM NaCl, pH measured using Jenway (TM) 3510 benchtop and adjusted using 1M HCl and 1M NaOH solutions). The partial specific volume ( υ¯ ) for each peptide were calculated in Sedfit using values from Cohn and Edsall. The buffer densities and viscosities were calculated using UltraScan III [54]. […]

STIL CCD peptide [3] = experiment: AUC sedimentation velocity (SV), oligomeric state; assay type: physicochemical; conditions: for oligomeric state (average number of monomers in the oligomer): continuous c(s), 25 mM sodium phosphate pH 6.8, NaCl
Experimental: Previously, we and others have shown by size-exclusion chromatography and multi-angle light scattering that the oligomerization of a STIL CCD peptide is concentration dependent. However, these studies were qualitative and the interaction was not quantified. To quantify the oligomerisation of the STIL CCD peptide, analytical ultracentrifugation (AUC) sedimentation velocity (SV) and sedimentation equilibrium (SE) experiments were performed (Figure 2A, Table 1 and Figures S4–S9, S18 and S19). AUC-SV experiments were conducted at several concentrations to explore how the oligomeric state changed with concentration in the low-to-high µM concentration range, and also to estimate the dissociation constants of the oligomerization of the STIL CCD peptide.
(§3) Analytical ultracentrifugation (AUC) experiments were carried out using a Beckman Optima XL-A or XL-I analytical ultracentrifuge. Measurements were performed at 20 °C unless otherwise stated, using an An-50 or An-60 rotor, in Sodium Phosphate Buffer pH 6.8 (25 mM Na2PO4 with addition of 137 mM NaCl, pH measured using Jenway (TM) 3510 benchtop and adjusted using 1M HCl and 1M NaOH solutions). The partial specific volume ( υ¯ ) for each peptide were calculated in Sedfit using values from Cohn and Edsall. The buffer densities and viscosities were calculated using UltraScan III [54].
Sedimentation velocity (SV) experiments were performed in EPON 2-channel centerpieces with quartz windows or aluminium centrepieces with sapphire windows. The samples were centrifuged at 50 or 60 krpm where stated, with absorbance measurements taken from a radial range of 5.7–7.3 cm. 120 scans were taken at 5 min intervals, the data were fit in Sedfit to a continuous c(s) distribution model at a 95% confidence level. The frictional ration and baseline were floated, and Time-invariant and Radial-invariant noise were fit. Initially data were fit between a range of Svedberg ratio of 0–15, but this was reduced to 0–3 for all data as there were no larger species. The residuals for each individual fit are shown in Figures S14–S17 as a bitmap in which the color indicates the difference between the model fit and the raw data over the radial range to which the data were fitted. The scans are in vertical chronological order.

[4] = CD spectroscopy, helicity; assay type: physicochemical; conditions: CD at 50 µM, 5 °C, 25 mM sodium phosphate pH 6.8, 154 mM NaCl; for % Helicity: from MRE222 (100% = −38)
Text: as §1

STIL CCD peptide [5] = experiment: AUC sedimentation equilibrium (SE), oligomeric state; assay type: physicochemical; conditions: absorbance 225 nm, 95% confidence limits; for AUC oligomeric state, SE: starting concentrations 5, 10, 20 µM, single ideal species fit, 20 °C, 25 mM phosphate pH 6.8; for mass, single species model, SE: starting concentrations 20, 10 and 5 µM
Experimental: as §2, §3
AUC sedimentation equilibrium (SE) experiments were run at multiple concentrations in a 6-Channel Epon charcoal-filled centerpiece. The samples were centrifuged at a range of speeds between 22–48 krpm. Absorbance scans across the radial range were recorded twice at each speed to ensure equilibration. Data were fitted to single, ideal species models or monomer-dimer equilibrium using Sedphat. In total, 95% confidence limits were obtained via Monte-Carlo analysis of the obtained fits. The quality of the fit was evaluated using the χ^2 parameter to observe which model best fit the data. Both fits of the data, where performed in Figures S18–S23 with their corresponding fit information.

[6] = 50 µM, 25 mM sodium phosphate pH 6.8, 154 mM NaCl
[7] = 10 µM, AUC-SV, 60 krpm, 20 °C, pH 6.8
[8] = 10 µM, AUC-SV, 60 krpm, 20 °C, pH 6.8, 95% confidence level
[9] = 10 µM, AUC-SV, 60 krpm, 20 °C, absorbance, 95% confidence level
[10] = 100 µM, AUC-SV, 60 krpm, 20 °C, pH 6.8
[11] = 100 µM, AUC-SV, 60 krpm, 20 °C, pH 6.8, 95% confidence level
[12] = 100 µM, AUC-SV, 60 krpm, pH 6.8
[13] = 10 µM in legend of Figure S17 (second fit), 60 krpm

Tm [1, 6] [°C] | Oligomeric State (at 10 µM) (STIL CCD peptide [3]; 10 µM) | sw (STIL CCD peptide [3]; [7]) [S] | mw (solution mass from c(s) fit) (STIL CCD peptide [3]; [8]) [Da] | f/f0 (STIL CCD peptide [3]; 10 µM, AUC-SV, 60 krpm, pH 6.8) | sw(20,w) (STIL CCD peptide [3]; 10 µM, AUC-SV, 60 krpm, pH 6.8) [S] | oligomeric state (average number of monomers in the oligomer) (STIL CCD peptide [3]; [9]) [× monomer mass] | sw (STIL CCD peptide [3]; [10]) [S] | mw (solution mass from c(s) fit) (STIL CCD peptide [3]; [11]) [Da] | f/f0 (STIL CCD peptide [3]; [12]) | sw(20,w) (STIL CCD peptide [3]; [12]) [S] | MRE222 nm [4] [kdeg cm^2 dmol^−1 res^−1] | % Helicity [4] [%] | mass, single species model, SE (STIL CCD peptide [5]) [Da] | Substance | dissociation of tetramer (in words) (STIL CCD peptide [2]) | AUC oligomeric state, SE (STIL CCD peptide [5]) | also measured
>95 | Tetramer | 1.484 | 13538 | 1.250 | 1.531 | 3.56 | 1.573 | 15867 | 1.323 | 1.622 | −25.3 | 67 | 13373 ± 200 | L SPDAYRF LTELDRQ LRLLQAQ IQRLLEA QSL-NH2 [STIL CCD718–749 Q729L, STIL CCD peptide with stabilising Q729L mutation; PDB 8oyl] | could not be dissociated under any experimental conditions | 3.47 ± 0.05 (5, 10, 20 µM) × monomer mass | oligomeric state (average number of monomers in the oligomer) (STIL CCD peptide [3]; 100 µM, AUC-SV, 60 krpm, 20 °C, 95% confidence level, listed as STIL-Q729L): 4.1 × monomer mass
>95 | Tetramer | 1.452 | 16229 | 1.411 | 1.499 | 4.22 | – | – | – | – | −30.7 | 81 | 12446 ± 129 | L SPDLYRF LTELDRQ LRLLQAQ IQRLLEA QSL-NH2 [STIL CCD718–749 A722L Q729L, STIL CCD peptide, double mutant of A722L and Q729L] | could not be dissociated under any experimental conditions | 3.24 ± 0.03 (5, 10, 20 µM) × monomer mass | f/f0 (STIL CCD peptide [3]; [13]): 1.390; sw (STIL CCD peptide [3]; [13]): 1.483 S; sw(20,w) (STIL CCD peptide [3]; [13]): 1.530 S; mw (solution mass from c(s) fit) (STIL CCD peptide [3]; 10 µM in legend of Figure S17 (second fit), 60 krpm, 95% confidence level): 16134 Da; oligomeric state (multiple of monomer mass) (STIL CCD peptide [3]; 10 µM in legend of Figure S17 (second fit), AUC-SV, 60 krpm, 95% confidence level): 4.2 × monomer mass; oligomeric state (average number of monomers in the oligomer) (STIL CCD peptide [3]; 10 µM, AUC-SV, 60 krpm, 20 °C, absorbance, 95% confidence level, listed as STIL-A722L-Q729L): 4.2 × monomer mass
>70 | Tetramer | 1.384 | 15133 | 1.458 | 1.428 | 3.92 | 1.483 | 15385 | 1.403 | 1.514 | −24.9 | 66 | 13541 ± 94 | L SPDLYRF LTEQDRQ LRLLQAQ IQRLLEA QSL-NH2 [STIL CCD718–749 A722L, STIL CCD peptide with A722L mutation] | could not be dissociated under any experimental conditions | 3.51 ± 0.02 (5, 10, 20 µM) × monomer mass | Tm ([1]; 3 µM, sodium phosphate pH 6.8): 48.0±0.7 °C; Tm ([1]; 5 µM, sodium phosphate pH 6.8): 52.9±0.9 °C; Tm ([1]; 6 µM, sodium phosphate pH 6.8): 53.6±0.6 °C; Tm ([1]; 10 µM, sodium phosphate pH 6.8): 59.1±0.8 °C; Tm ([1]; 15 µM, sodium phosphate pH 6.8): 63±1 °C; Tm ([1]; 20 µM, sodium phosphate pH 6.8): 68±2 °C; Tm ([1]; 50 µM, 25 mM sodium phosphate pH 6.8, 154 mM NaCl, listed as A722L): over 70 °C; thermal denaturation (in words) ([1]; 50 µM, CD, 25 mM sodium phosphate pH 6.8, 154 mM NaCl): partially denatured; concentration dependence of Tm / thermal stability (in words) ([1]; pH 6.8): the thermal stability of A722L increased with peptide concentration; oligomeric state (average number of monomers in the oligomer) (STIL CCD peptide [3]; 100 µM, AUC-SV, 60 krpm, 20 °C, 95% confidence level, listed as STIL-A722L): 4.0 × monomer mass
